# Source: ChEMBL document CHEMBL5154690, “Discovery of a tricyclic farnesoid X receptor agonist HEC96719, a clinical candidate for treatment of non-alcoholic steatohepatitis” (Eur J Med Chem, 2022)
# The source made the active and inactive calls. The calls are words filed in the database; no cut-off is given here.
# Legend:
# [1] = Drug recovery in liver of male Sprague-Dawley rat at 4.5 mg/kg, po administered as C14-lableled compound and assessed as radioactivity and measured at 1 hr; assay type: ADME, organism-based; settings: in vivo
# [2] = Drug recovery in spleen of male Sprague-Dawley rat at 4.5 mg/kg, po administered as C14-lableled compound and assessed as radioactivity and measured at 1 hr; assay type: ADME, organism-based; settings: in vivo
# [3] = Mutagenecity in Salmonella typhimurium TA98 measured by Ames test; assay type: toxicity; settings: salmonella enterica subsp. enterica serovar typhimurium
# [4] = Drug recovery in heart of male Sprague-Dawley rat at 4.5 mg/kg, po administered as C14-lableled compound and assessed as radioactivity and measured at 0.25 hrs; assay type: ADME, organism-based; settings: in vivo
# [5] = Oral bioavailability in male Beagle dog at 5 mg/kg measured by LC-MS/MS analysis; assay type: ADME, organism-based, Canis lupus familiaris; settings: in vivo
# [6] = Cmax in male Sprague-Dawley rat at 5 mg/kg, po measured by LC-MS/MS analysis; assay type: ADME, organism-based; parameters: dose 5 mg/kg, route po; settings: in vivo
# [7] = Drug recovery in ileum of male Sprague-Dawley rat at 4.5 mg/kg, po administered as C14-lableled compound and assessed as radioactivity and measured at 1 hr; assay type: ADME, organism-based; settings: in vivo
# [8] = Drug recovery in skin of male Sprague-Dawley rat at 4.5 mg/kg, po administered as C14-lableled compound and assessed as radioactivity and measured at 0.25 hrs; assay type: ADME, organism-based, Skin of body; settings: in vivo
# [9] = Drug recovery in skin of male Sprague-Dawley rat at 4.5 mg/kg, po administered as C14-lableled compound and assessed as radioactivity and measured at 24 hrs; assay type: ADME, organism-based, Skin of body; settings: in vivo, BLD = below limit of detection
# [10] = Drug recovery in stomach of male Sprague-Dawley rat at 4.5 mg/kg, po administered as C14-lableled compound and assessed as radioactivity and measured at 1 hr; assay type: ADME, organism-based; settings: in vivo
# [11] = Half-life in male Sprague-Dawley rat at 1 mg/kg, iv measured by LC-MS/MS analysis; assay type: ADME, organism-based; settings: in vivo
# [12] = Drug recovery in plasma of male Sprague-Dawley rat at 4.5 mg/kg, po administered as C14-lableled compound and assessed as radioactivity and measured at 24 hrs; assay type: ADME, organism-based; settings: in vivo, BLD = below limit of detection
# [13] = Drug recovery in plasma of male Sprague-Dawley rat at 4.5 mg/kg, po administered as C14-lableled compound and assessed as radioactivity and measured at 1 hr; assay type: ADME, organism-based; settings: in vivo
# [14] = system: Mus musculus; experiment: Antifibrotic activity in C57BL/6 mouse model of CCI4-induced liver fibrosis assessed as decrease in serum ALT level at 0.1 to 1 mg/kg, po administered once daily for 4 weeks; assay type: functional, organism-based; settings: dose 0.1-1 mg/kg
# [15] = Drug recovery in brain of male Sprague-Dawley rat at 4.5 mg/kg, po administered as C14-lableled compound and assessed as radioactivity and measured at 1 hr; assay type: ADME, organism-based; settings: in vivo
# [16] = AUC (0 to t) in male Sprague-Dawley rat at 1 mg/kg, iv measured by LC-MS/MS analysis; assay type: ADME, organism-based; parameters: dose 1 mg/kg, route iv; settings: in vivo
# [17] = Drug recovery in ileum of male Sprague-Dawley rat at 4.5 mg/kg, po administered as C14-lableled compound and assessed as radioactivity and measured at 6 hrs; assay type: ADME, organism-based; settings: in vivo
# [18] = system: Mus musculus; experiment: Anti-NASH activity against high fat (HF) diet-induced nonalcoholic steatohepatitis in leptin-deficient ob/ob mouse model assessed as reduction in serum TG level at 3 mg/kg, po administered once daily from week 5 to 10; assay type: functional, organism-based
# [19] = Clearance in male Sprague-Dawley rat at 1 mg/kg, iv measured by LC-MS/MS analysis; assay type: ADME, organism-based; settings: in vivo
# [20] = system: Mus musculus; experiment: Antifibrotic activity in C57BL/6 mouse model of CCI4-induced liver fibrosis assessed as decrease in serum TBIL level at 1 mg/kg, po administered once daily for 4 weeks; assay type: functional, organism-based
# [21] = Oral bioavailability in male Sprague-Dawley rat at 5 mg/kg measured by LC-MS/MS analysis; assay type: ADME, organism-based; settings: in vivo
# [22] = Ratio of drug level in kidney to plasma in male Sprague-Dawley rat at 4.5 mg/kg, po administered as C14-lableled compound and measured at 0.25 to 6 hrs; assay type: ADME, organism-based; settings: other tissue, time 0.25-6 hrs
# [23] = Half-life in male Sprague-Dawley rat at 5 mg/kg, po measured by LC-MS/MS analysis; assay type: ADME, organism-based; settings: in vivo
# [24] = Drug recovery in heart of male Sprague-Dawley rat at 4.5 mg/kg, po administered as C14-lableled compound and assessed as radioactivity and measured at 1 hr; assay type: ADME, organism-based; settings: in vivo
# [25] = Drug recovery in stomach of male Sprague-Dawley rat at 4.5 mg/kg, po administered as C14-lableled compound and assessed as radioactivity and measured at 0.25 hrs; assay type: ADME, organism-based; settings: in vivo
# [26] = molecular target: T1, Peroxisome proliferator-activated receptor alpha (Homo sapiens, UniProt Q07869); experiment: Agonist activity at PPARalpha (unknown origin)
# T1 sequence (Q07869 whole entry): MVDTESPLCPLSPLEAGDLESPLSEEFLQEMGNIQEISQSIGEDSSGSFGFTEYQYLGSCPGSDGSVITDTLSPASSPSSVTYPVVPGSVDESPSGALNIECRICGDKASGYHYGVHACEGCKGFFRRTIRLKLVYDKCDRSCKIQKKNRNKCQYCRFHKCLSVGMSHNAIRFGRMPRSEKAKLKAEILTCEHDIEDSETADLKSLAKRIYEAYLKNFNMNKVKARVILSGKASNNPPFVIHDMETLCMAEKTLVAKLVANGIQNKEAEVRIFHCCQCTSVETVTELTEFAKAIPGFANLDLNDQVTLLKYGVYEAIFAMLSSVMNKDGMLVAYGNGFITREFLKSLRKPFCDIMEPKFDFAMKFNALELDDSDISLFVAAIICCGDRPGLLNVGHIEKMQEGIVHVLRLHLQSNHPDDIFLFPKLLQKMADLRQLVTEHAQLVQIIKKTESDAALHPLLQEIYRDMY
# [27] = Drug recovery in pancreas of male Sprague-Dawley rat at 4.5 mg/kg, po administered as C14-lableled compound and assessed as radioactivity and measured at 1 hr; assay type: ADME, organism-based; settings: in vivo
# [28] = Volume of distribution at steady state in male Sprague-Dawley rat at 1 mg/kg, iv measured by LC-MS/MS analysis; assay type: ADME, organism-based; settings: in vivo, read-out: Vdss
# [29] = system: Mus musculus; experiment: Anti-NASH activity against high fat (HF) diet-induced nonalcoholic steatohepatitis in leptin-deficient ob/ob mouse model assessed as reduction in serum ALT level at 0.1 to 1 mg/kg, po administered once daily from week 5 to 10; assay type: functional, organism-based; settings: dose 0.1-1 mg/kg
# [30] = Drug recovery in brain of male Sprague-Dawley rat at 4.5 mg/kg, po administered as C14-lableled compound and assessed as radioactivity and measured at 6 hrs; assay type: ADME, organism-based; settings: in vivo, BLD = below limit of detection
smiles,measurement,setting,value
O=C(O)c1ccc2c(c1)Oc1ccc(OCc3c(-c4c(Cl)cccc4Cl)noc3C3CC3)nc1C1(CC1)C2,Drug recovery,[1],6520 ngequiv/g
same,Drug recovery,[2],104 ngequiv/g
same,Activity,[3],Non-Toxic
same,Drug recovery,[4],208 ngequiv/g
same,bioavailability,[5],42.3%
same,Cmax,[6],1.09 µg/mL
same,Drug recovery,[7],1553 ngequiv/g
same,Drug recovery,[8],33.3 ngequiv/g
same,Drug recovery,[9],Bld
same,Drug recovery,[10],1536 ngequiv/g
same,half-life,[11],16.8 min
same,Drug recovery,[12],Bld
same,Drug recovery,[13],305 ngequiv/g
same,Activity,[14],Active
same,Drug recovery,[15],38.2 ngequiv/g
same,AUC(0-t),[16],0.473 µg·h/mL
same,Drug recovery,[17],5620 ngequiv/g
same,Activity,[18],Active
same,clearance,[19],2.12 L/h/kg
same,Activity,[20],Active
same,bioavailability,[21],50.8%
same,Ratio,[22],1.8
same,half-life,[23],96 min
same,Drug recovery,[24],341 ngequiv/g
same,Drug recovery,[25],3213 ngequiv/g
same,EC50,[26],> 10 µM
same,Drug recovery,[27],229 ngequiv/g
same,Vd,[28],0.65 L/kg
same,Activity,[29],Active
same,Drug recovery,[30],Bld
